Measurements published in patent US10017584B2, “6-deoxy-6-thioether-amino acid cyclodextrin derivative and preparation method thereof” (Hangzhou Adamerck Pharmlabs Inc., priority 2010, dated 2018).
Read-outs that look alike come from different tables or passages of the source.

Tests used:
small mice [1] = assay: Toxic reactions after intravenous tail injection in male small mice; conditions: intravenous injection at the tail, 200 mg/ml, 4000 mg/kg
Excerpt: (§1) Male small mice are processed with intravenous injection with compounds of the present invention at the tails.

[2] = test system: muscular relaxation induced by rocuronium bromide; assay: Reversal of rocuronium bromide induced muscular relaxation in anaesthetised Guinea pigs (TOF-Watch SX monitor); format: in vivo, Guinea pig
Excerpt: After pentobarbital sodium anesthesia in the abdominal cavity, the Guinea pigs are fixed on rat boards and connected to small animal ventilators after endotracheal intubation. Stimulating electrodes of a muscular relaxation monitor, TOF-Watch SX, are respectively connected to left post-femur and post-tibialis subcutis of the Guinea pig. Self-made tools are used to fix the left tibialis on a small platform while permitting the left hind paw to be able to move freely. A sensor is fixed on a palm surface of a left hind leg of the Guinea pig and a probe of skin temperature is fixed on a palm surface of a left front leg of the Guinea pig.

small mice [3] = conditions: according to reports; cited from earlier work
small mice [4] = conditions: mouse, in vivo, iv, 4000 mg/kg
Excerpt: as §1

[5] = guinea pig, in vivo, iv, 2 mg/kg
[6] = Guinea pig, compound 2 mg/kg given when TOFR disappears and T1 decreases more than 80%, after i.v. rocuronium bromide (twice ED90 dose)

Row | Compound | result description (toxic reactions) (small mice [1]) | T1 recovering to 25%/time [2, 5] | T1 recovering to 50%/time [2, 5] | T1 recovering to 75%/time [2, 5] | TOF recovering to 50%/time [2, 5] | TOF recovering to 75%/time [2, 5] | other results
1 | N[C@H](CSC[C@H]1O[C@@H]2O[C@H]3[C@H](O)[C@@H](O)[C@@H](O[C@H]4[C@H](O)[C@@H](O)[C@@H](O[C@H]5[C@H](O)[C@@H](O)[C@@H](O[C@H]6[C@H](O)[C@@H](O)[C@@H](O[C@H]7[C@H](O)[C@@H](O)[C@@H](O[C@H]8[C@H](O)[C@@H](O)[C@@H](O[C@H]1[C@H](O)[C@H]2O)O[C@@H]8CSC[C@@H](N)C(=O)[O-])O[C@@H]7CSC[C@@H](N)C(=O)[O-])O[C@@H]6CSC[C@@H](N)C(=O)[O-])O[C@@H]5CSC[C@@H](N)C(=O)[O-])O[C@@H]4CSC[C@@H](N)C(=O)[O-])O[C@@H]3CSC[C@@H](N)C(=O)[O-])C(=O)[O-].[Na+].[Na+].[Na+].[Na+].[Na+].[Na+].[Na+] [CD-25, 6-per-deoxy-6-per-(α-D-glycinemethyl)thioether-β-cyclodextrin sodium salt] | normal |  |  |  |  |  | 
2 | 6-per-deoxy-6-per-(N-ethyl-D-cysteine)thioether-β-cyclodextrin sodium salt [CD-29] |  | 6.75 min | 8.50 min | 9.25 min | 6.50 min | 8.25 min | 
3 | 6-per-deoxy-6-per-(N-ethyl-D-cysteine)thioether-β-cyclodextrin [CD-28] |  |  |  |  |  |  | T1 recovering to 25%/time [2, 6]: 8.25 min; T1 recovering to 50%/time [2, 6]: 12.25 min; T1 recovering to 75%/time [2, 6]: 15.00 min; TOF recovering to 50%/time [2, 6]: 12.75 min; TOF recovering to 75%/time [2, 6]: 16.25 min
4 | 6-per-deoxy-6-per-(α-L-glycine ethyl)thioether-γ-cyclodextrin [CD-16] |  | 2.25 min | 3.50 min | 8.50 min | 3.50 min | 5.75 min | 
5 | N[C@@H](CCSC[C@H]1O[C@@H]2O[C@H]3[C@H](O)[C@@H](O)[C@@H](O[C@H]4[C@H](O)[C@@H](O)[C@@H](O[C@H]5[C@H](O)[C@@H](O)[C@@H](O[C@H]6[C@H](O)[C@@H](O)[C@@H](O[C@H]7[C@H](O)[C@@H](O)[C@@H](O[C@H]8[C@H](O)[C@@H](O)[C@@H](O[C@H]9[C@H](O)[C@@H](O)[C@@H](O[C@H]1[C@H](O)[C@H]2O)O[C@@H]9CSCC[C@H](N)C(=O)[O-])O[C@@H]8CSCC[C@H](N)C(=O)[O-])O[C@@H]7CSCC[C@H](N)C(=O)[O-])O[C@@H]6CSCC[C@H](N)C(=O)[O-])O[C@@H]5CSCC[C@H](N)C(=O)[O-])O[C@@H]4CSCC[C@H](N)C(=O)[O-])O[C@@H]3CSCC[C@H](N)C(=O)[O-])C(=O)[O-].[Na+].[Na+].[Na+].[Na+].[Na+].[Na+].[Na+].[Na+] [CD-17, 6-per-deoxy-6-per-(α-L-amino acid ethyl)thioether-γ-cyclodextrin sodium salt] | normal |  |  |  |  |  | T1 recovering to 25%/time [2, 6]: 3.00 min; T1 recovering to 50%/time [2, 6]: 5.25 min; T1 recovering to 75%/time [2, 6]: 7.75 min; TOF recovering to 50%/time [2, 6]: 3.00 min; TOF recovering to 75%/time [2, 6]: 6.25 min
6 | 6-per-deoxy-6-per-(N-methyl-D-cysteine)thioether-β-cyclodextrin sodium salt [CD-27] |  | 8.25 min | 11.25 min | 16.00 min | 8.25 min | 10.75 min | 
7 | 6-per-deoxy-6-per-(N-methyl-D-cysteine)thioether-β-cyclodextrin [CD-26] |  |  |  |  |  |  | T1 recovering to 25%/time [2, 6]: 7.75 min; T1 recovering to 50%/time [2, 6]: 12.25 min; T1 recovering to 75%/time [2, 6]: 16.00 min; TOF recovering to 50%/time [2, 6]: 8.00 min; TOF recovering to 75%/time [2, 6]: 11.75 min
8 | 6-per-deoxy-6-per-(α-L-glycine methyl)sulfinyl-γ-cyclodextrin [CD-5] |  | 3.50 min | 4.25 min | 8.25 min | 4.75 min | 7.25 min | 
9 | N[C@@H](CSC[C@H]1O[C@@H]2O[C@H]3[C@H](O)[C@@H](O)[C@@H](O[C@H]4[C@H](O)[C@@H](O)[C@@H](O[C@H]5[C@H](O)[C@@H](O)[C@@H](O[C@H]6[C@H](O)[C@@H](O)[C@@H](O[C@H]7[C@H](O)[C@@H](O)[C@@H](O[C@H]8[C@H](O)[C@@H](O)[C@@H](O[C@H]9[C@H](O)[C@@H](O)[C@@H](O[C@H]1[C@H](O)[C@H]2O)O[C@@H]9CSC[C@H](N)C(=O)[O-])O[C@@H]8CSC[C@H](N)C(=O)[O-])O[C@@H]7CSC[C@H](N)C(=O)[O-])O[C@@H]6CSC[C@H](N)C(=O)[O-])O[C@@H]5CSC[C@H](N)C(=O)[O-])O[C@@H]4CSC[C@H](N)C(=O)[O-])O[C@@H]3CSC[C@H](N)C(=O)[O-])C(=O)[O-].[Na+].[Na+].[Na+].[Na+].[Na+].[Na+].[Na+].[Na+] [CD-7, 6-per-deoxy-6-per-(α-L-glycinemethyl)thioether-γ-cyclodextrin sodium salt] | normal | 1.25 min | 1.50 min | 2.75 min | 1.25 min | 1.50 min | 
10 | CC(=O)NC(CSC[C@H]1O[C@@H]2O[C@H]3[C@H](O)[C@@H](O)[C@@H](O[C@H]4[C@H](O)[C@@H](O)[C@@H](O[C@H]5[C@H](O)[C@@H](O)[C@@H](O[C@H]6[C@H](O)[C@@H](O)[C@@H](O[C@H]7[C@H](O)[C@@H](O)[C@@H](O[C@H]8[C@H](O)[C@@H](O)[C@@H](O[C@H]9[C@H](O)[C@@H](O)[C@@H](O[C@H]1[C@H](O)[C@H]2O)O[C@@H]9CSCC(NC(C)=O)C(=O)O)O[C@@H]8CSCC(NC(C)=O)C(=O)O)O[C@@H]7CSCC(NC(C)=O)C(=O)O)O[C@@H]6CSCC(NC(C)=O)C(=O)O)O[C@@H]5CSCC(NC(C)=O)C(=O)O)O[C@@H]4CSCC(NC(C)=O)C(=O)O)O[C@@H]3CSCC(NC(C)=O)C(=O)O)C(=O)O (stereo partly drawn) [CD-8, 6-per-deoxy-6-per-(N-acetylglycinemethyl)thioether-γ-cyclodextrin] |  |  | 2.75 min | 4.25 min | 2.50 min | 3.50 min | 
11 | O=C(O)CCSC[C@H]1O[C@@H]2O[C@H]3[C@H](O)[C@@H](O)[C@@H](O[C@H]4[C@H](O)[C@@H](O)[C@@H](O[C@H]5[C@H](O)[C@@H](O)[C@@H](O[C@H]6[C@H](O)[C@@H](O)[C@@H](O[C@H]7[C@H](O)[C@@H](O)[C@@H](O[C@H]8[C@H](O)[C@@H](O)[C@@H](O[C@H]9[C@H](O)[C@@H](O)[C@@H](O[C@H]1[C@H](O)[C@H]2O)O[C@@H]9CSCCC(=O)O)O[C@@H]8CSCCC(=O)O)O[C@@H]7CSCCC(=O)O)O[C@@H]6CSCCC(=O)O)O[C@@H]5CSCCC(=O)O)O[C@@H]4CSCCC(=O)O)O[C@@H]3CSCCC(=O)O [Bridion, sugammadex] |  |  |  |  |  |  | maximal safe dose (small mice [3]): 2000 mg/kg
12 | CC(C)(SC[C@H]1O[C@@H]2O[C@H]3[C@H](O)[C@@H](O)[C@@H](O[C@H]4[C@H](O)[C@@H](O)[C@@H](O[C@H]5[C@H](O)[C@@H](O)[C@@H](O[C@H]6[C@H](O)[C@@H](O)[C@@H](O[C@H]7[C@H](O)[C@@H](O)[C@@H](O[C@H]8[C@H](O)[C@@H](O)[C@@H](O[C@H]9[C@H](O)[C@@H](O)[C@@H](O[C@H]1[C@H](O)[C@H]2O)O[C@@H]9CSC(C)(C)[C@@H](N)C(=O)[O-])O[C@@H]8CSC(C)(C)[C@@H](N)C(=O)[O-])O[C@@H]7CSC(C)(C)[C@@H](N)C(=O)[O-])O[C@@H]6CSC(C)(C)[C@@H](N)C(=O)[O-])O[C@@H]5CSC(C)(C)[C@@H](N)C(=O)[O-])O[C@@H]4CSC(C)(C)[C@@H](N)C(=O)[O-])O[C@@H]3CSC(C)(C)[C@@H](N)C(=O)[O-])[C@@H](N)C(=O)[O-].[Na+].[Na+].[Na+].[Na+].[Na+].[Na+].[Na+].[Na+] [CD-20, 6-per-deoxy-6-per-(α-D-amino acid dimethyl)sulfinyl-γ-cyclodextrin sodium salt] |  |  |  |  |  |  | result description (toxic reactions) (small mice [4]): normal
13 | CC(=O)NC(CSC[C@H]1O[C@@H]2O[C@H]3[C@H](O)[C@@H](O)[C@@H](O[C@H]4[C@H](O)[C@@H](O)[C@@H](O[C@H]5[C@H](O)[C@@H](O)[C@@H](O[C@H]6[C@H](O)[C@@H](O)[C@@H](O[C@H]7[C@H](O)[C@@H](O)[C@@H](O[C@H]8[C@H](O)[C@@H](O)[C@@H](O[C@H]9[C@H](O)[C@@H](O)[C@@H](O[C@H]1[C@H](O)[C@H]2O)O[C@@H]9CSCC(NC(C)=O)C(=O)[O-])O[C@@H]8CSCC(NC(C)=O)C(=O)[O-])O[C@@H]7CSCC(NC(C)=O)C(=O)[O-])O[C@@H]6CSCC(NC(C)=O)C(=O)[O-])O[C@@H]5CSCC(NC(C)=O)C(=O)[O-])O[C@@H]4CSCC(NC(C)=O)C(=O)[O-])O[C@@H]3CSCC(NC(C)=O)C(=O)[O-])C(=O)[O-].[Na+].[Na+].[Na+].[Na+].[Na+].[Na+].[Na+].[Na+] (stereo partly drawn) [CD-9, 6-per-deoxy-6-per-(N-acetylglycinemethyl)thioether-γ-cyclodextrin sodium salt] | normal | 1.25 min | 1.75 min |  | 1.50 min | 3.25 min | 
